Experimental data taken from a melting point compilation (Tetko et al.; mined from patent text by program, amines drawn as free bases though some values may be those of a salt).

Row | Compound | melting point [°C]
1 | CC(CCc1ccccc1)Nc1nc(Cl)nc(NS(C)(=O)=O)n1 (stereo not drawn) | 143
2 | O=C(NCc1ccc(Cl)cc1)c1cnc2c(C(F)(F)F)cc(CCCO)cc2c1O | 249 to 250
3 | COc1ccc(-c2nc(OC(=O)N(C)C)nn2-c2ccc(OC)cc2)cc1 | 121 to 123
4 | Cn1cc(Br)nc(Br)c1=O | 94 to 95
5 | CC(=O)OCc1ccc2oc(=O)c(C(=O)Oc3ccccc3C#N)cc2c1 | 181 to 183
6 | CC(C)(C)OC(=O)Nc1cccc(C2(O)COC2)c1 | 121 to 123
7 | Cc1cc(C)c2c(c1O)C(NC(=O)CN1CCN(c3cccc(Cl)c3)CC1)C(C)(C)C2 (stereo not drawn) | 125 to 126
8 | O=C(c1ccccc1)c1ccc(OCCCCOc2ccc(C(=O)c3ccccc3)cc2)cc1 | 163 to 164
9 | Cc1cc(SCc2ccc(OCc3ccccn3)cc2)ccc1OCC(=O)O | 150
10 | CC1(C)CCC(=O)Nc2cc(OCCCCCN3CCN(c4cccc(Cl)c4Cl)CC3)ccc21 | 128 to 130
11 | COC(=O)CC1(CN=C=O)CCCCCC1 | 69 to 72
12 | CCCNCc1cnc2c(C)c(NC(=O)c3ccc(OC[C@@H]4CCCO4)cc3F)ccc2c1 | 120 to 121
13 | Cc1oc2c(-n3c(=O)cc(C(F)(F)F)n(C)c3=O)c(F)cc(Cl)c2c1C=O | 148 to 150
14 | O=C(O)CCC(=O)N1CCc2cc(S(=O)(=O)N3CCN(c4cccc(C(F)(F)F)c4)CC3)ccc21 | 274 to 276
15 | COc1cc(Br)c2c(c1OC)C(=O)CC2 | 180 to 182
16 | O=C(Nc1nnco1)C1c2ccccc2Oc2ccccc21 | 239 to 240
17 | CN(C(=O)NCCCl)c1ccc(C(O)(C(F)(F)F)C(F)(F)F)cc1 | 120 to 121
18 | Cc1ccc2c(=O)c(C(=O)O)cn(CCOC=O)c2n1 | 213 to 214
19 | CC1(O)c2ccc(Cl)cc2CC1(F)S(C)(=O)=O (stereo not drawn) | 148
20 | COc1cc(C)c(C(O)c2c(Cl)cncc2C(F)(F)F)c(OC)c1OC (stereo not drawn) | 102 to 105
21 | Cc1oc(-c2ccccc2)nc1COc1ccc(COc2ncccc2CO)cc1 | 139 to 140
22 | CSc1c(NC(C)=O)cnc2ccccc12 | 137 to 138
23 | O=C(O)c1cccc(NC(=O)C(CS)Cc2ccccc2)c1 (stereo not drawn) | 178 to 180
24 | Cc1nnc(C2CN3CCC2CC3)o1 (stereo not drawn) | 147 to 148
25 | CCCc1c(OCCCOc2ccc(C(=O)C(=O)O)cc2)ccc(C(C)=O)c1OC | 94 to 96
26 | CCCCCCCCCC1CNC(=O)O1 (stereo not drawn) | 83 to 85

Row | Compound | melting point [°C]
27 | CCCCCC(=O)NCc1ccc(C(=O)O)cc1 | 178 to 179
28 | BrCCCCOc1ccc(OCCCBr)cc1 | 73 to 76
29 | CCCCCC1(C#N)CCC(c2ccc(-c3ccc(CCC)cc3)cc2)CC1 (stereo not drawn) | 75
30 | Cc1nnc2n1-c1sc(C#Cc3ccccn3)cc1C(c1ccccc1Cl)=NC2 | 153 to 155
31 | CCCOc1ccccc1-c1[nH]c(=O)c(C#N)cc1C | 213
32 | COc1ccc(OCc2ccccc2)cc1CC#N | 63 to 65
33 | COC1=C(OC)C(=O)C(CCCCCCCCCCCCCCCCCCO)=C(C)C1=O | 81
34 | Oc1c(I)cc(Br)cc1I | 122 to 124
35 | N#Cc1ccc2c(c1)Nc1ccc(Cl)cc1S2 | 235
36 | Oc1nc2ccc3nsnc3c2nc1O | > 300
37 | CN1C(=O)CC[C@]2(C)c3ccc(-c4ccc(F)c(Cl)c4)cc3CC[C@@H]12 | 114 to 116
38 | C#CCN1C(=O)N(c2ccc(C#N)c(C(F)(F)F)c2)C(=O)C1(CO)CO | 125 to 126
39 | CCCCCCCCC(C)(C)c1cc(=O)c2cc(O)ccc2o1 | 257
40 | CCn1c(CCO)nc(C2CC2)c1Sc1cc(C#N)cc(C#N)c1 | 122 to 124
41 | COc1cc2c(c(OC)c1/C=C/c1ccc(COC(C)=O)cc1)C(C)(C)CCC2(C)C | 73 to 74
42 | CCCCc1noc(-c2ncn3c2[C@@H]2CCCN2C(=O)c2c(Cl)cccc2-3)n1 | 181 to 182
43 | CN(C)c1ccc(S(=O)(=O)N2CC(OC(=O)C(C)(C)C)CC2=O)cc1 (stereo not drawn) | 117 to 118
44 | Cn1cc(/C=C/C#N)c2ccccc21 | 91 to 94
45 | CON(c1ccc([N+](=O)[O-])cc1C#N)S(=O)(=O)c1ccc(Cl)c(C(F)(F)F)c1 | 140 to 142
46 | O=C(O)CC1(C(=O)O)CCOc2ccc(C(=O)O)cc21 (stereo not drawn) | 198 to 200
47 | CCOC(=O)c1ccc(-c2cc(-c3ccc4c(c3)C(C)(C)CCC4(C)C)ccc2-c2ccccc2)cc1 | 233 to 235
48 | CC(C)(C)C(=O)Nc1ccc(F)c(Oc2ccc(C3CC(=O)NC(=O)C3)cc2)c1F | 172
49 | CCNC(C)c1cc(S(N)(=O)=O)sc1S(C)(=O)=O (stereo not drawn) | 164 to 166
50 | NCC(CC(=O)O)CC1CC1 (stereo not drawn) | 172 to 173
51 | COc1cc2ccn(C(=O)c3ccc(-c4ccccc4)c(C)c3)c2cc1OCCN(C)C | 152 to 154
52 | NC(=O)n1ccc(-c2ccc(Sc3ccc(F)cc3)cc2)n1 | 150 to 155

Row | Compound | melting point [°C]
53 | OC(Cn1cncn1)(c1ccc(Cl)cc1)C(Cl)(Cl)C(Cl)Cl (stereo not drawn) | 168 to 169
54 | Cc1nc(Cl)c([N+](=O)[O-])c(N2CCc3ccccc3CC2)n1 | 161 to 165
55 | CCOC(=O)c1[nH]c2ccc(Cl)cc2c1S(=O)(=O)c1ccccc1 | 201 to 202
56 | CC(=O)NCc1ccc2ccn(C3CCN(CCCCc4ccc(F)cc4)CC3)c2c1 | 59 to 60
57 | CC(C)OP(=O)(/C=C/CCn1cnc2c(Cl)ncnc21)OC(C)C | 105
58 | CC[C@@H](c1ccc(F)cc1)N(Cc1ccc(C(=O)OC)cc1)S(=O)(=O)c1ccc(Cl)cc1 | 73 to 75
59 | CCOc1c(SC(F)(F)F)c(C(N)=O)nn1-c1c(Cl)cc(C(F)(F)F)cc1Cl | 161
60 | C[C@H](OC(c1ccccc1)(c1ccccc1)c1ccccc1)C(=O)O | 100 to 106
61 | CCOC(=O)Cc1sc(Sc2cc(C(=O)OC)ccn2)nc1C | 52 to 54
62 | Cn1c(C(F)(F)F)cc(=O)n(-c2cc(OCS(C)=O)c(Cl)cc2F)c1=O (stereo not drawn) | 178 to 179
63 | CN=C(SCc1ccc(OC)cc1)C1(c2cccnc2)CCCCC1CCO (stereo not drawn) | 145 to 146
64 | CC(C)C1Sc2ccccc2N(CC(N)=O)C(=O)C1N (stereo not drawn) | 227 to 229
65 | CC(=O)n1nc(N2CCN(C)CC2)c2ccccc21 | 106 to 108
66 | O=C(/C=C/c1ccc2c(/C=C/C(=O)N3CCCC3)c[nH]c2c1)N1CCCC1 | 268 to 270
67 | COC(=O)C1CNCCN1C(=O)c1cc(OC)c(OC)c(OC)c1 (stereo not drawn) | 134 to 135
68 | CC(C)(C)OC(=O)NC(Cc1ccccc1)C(O)C(O)C(Cc1ccccc1)NC(=O)OC(C)(C)C (stereo not drawn) | 208 to 212
69 | CCOC(=O)c1sc2cc(OCc3cccnc3)ccc2c1S(=O)(=O)c1ccccc1 | 120 to 122
70 | FC(F)(F)c1cccc(-c2cc(C(F)(F)F)n3nccc3n2)c1 | 96
71 | Cc1c(C(=O)Nc2ccc(N3CCN(C)CC3)c(C#N)c2)cnn1-c1ccc(F)cc1 | 205 to 207
72 | O=[N+]([O-])N=c1ccccn1Cc1ccccc1 | 125 to 126
73 | CC#CNC(=O)NC(=NC(=O)N(C)C)SC | 88 to 91
74 | O=c1oc2c(O)c(O)ccc2c2ccccc12 | 254 to 256
75 | CCOc1cccc(-c2nn(C(C)c3oc4ccccc4c(=O)c3-c3cccc(F)c3)c3ncnc(N)c23)c1 (stereo not drawn) | 162 to 165
76 | CC(C(=O)Nc1ccc2[nH]c(=O)oc2c1)N1CCC(Cc2ccccc2)CC1 (stereo not drawn) | 116 to 118
77 | O=C1C(=O)c2ccccc2C2=C1SCC1(CCN(S(=O)(=O)c3cccc(Cl)c3)CC1)O2 | 255 to 256
78 | COC(=O)c1ccc(C2=NOC(c3cc(Cl)cc(Cl)c3)(C(F)(F)F)C2)c2ccccc12 (stereo not drawn) | 137 to 138

Row | Compound | melting point [°C]
79 | CCOC(=O)C(=Cc1ccc(OC)cc1OC)C(=O)OCC | 40 to 41
80 | CC(=O)n1c(=O)n(CCN2CCC(CC(=O)c3ccc(F)cc3)CC2)c2ccccc21 | 149
81 | COC1=CC(=O)N(CC(=O)OCc2ccccc2)C1 | 129 to 130
82 | CNC1NC(=O)c2sccc2-n2cccc21 (stereo not drawn) | 146
83 | CC(CCNc1cccc(-c2ccnc3c(C(=O)c4cccs4)cnn23)c1)CC(C)(C)C (stereo not drawn) | 81 to 85
84 | CCCCCCCCCC(O)CNCCCCCCNCC(O)CCCCCCCCC (stereo not drawn) | 123 to 129
85 | NCc1cccc(CNC(=O)C2Cc3ccccc3N2S(=O)(=O)c2ccc(-c3cccc(C(F)(F)F)c3)cc2)c1 (stereo not drawn) | 116
86 | CC(C)(C)OC(=O)NCC(=O)Oc1cc2c(c3ccccc13)Nc1ccccc1S2 | 175
87 | COc1ccc(C(=CC(=O)N2CCOCC2)c2ccc(-c3ccccc3)cc2)cc1OC | 127 to 128
88 | COC(=O)C(C)C(C#Cc1ccccc1)c1ccc(OC)c(OC2CCCC2)c1 (racemic) | 52 to 54
89 | CCC(C)CNc1nc2ccc(Sc3nnc4n3N=C(c3ccc(F)cc3)CC4)cc2s1 (stereo not drawn) | 220
90 | CCOC(=O)c1c(CN(CC)CC)nc2cc(OC)c(OC)cc2c1-c1ccc(Cl)cc1 | 82 to 83
91 | O=P(O)(O)Cc1ccc(C(F)(F)F)cc1 | 163 to 164
92 | O=C(Nc1ccc(F)cc1)c1ccc(C2COC(c3c(F)cccc3F)=N2)cc1 (stereo not drawn) | 210 to 212
93 | Clc1ccccc1Oc1ccnc2c(Cl)cccc12 | 56 to 58
94 | COC(=O)c1cn(-c2ccc(OC(C)=O)cc2C)c(C=O)cc1=O | 216 to 217
95 | CCCCCCCCCCCCCCCC(=O)NCCCC[C@H](N)C(=O)O | 240 to 245
96 | OCC1CCc2[nH]c3ccc(F)cc3c2C1 (stereo not drawn) | 107 to 109
97 | CN(CCO)c1nccc(NC(N)=NCC(F)(F)F)n1 | 158 to 160
98 | NS(=O)(=O)c1cccc(NC(=O)c2cnn3c(C(F)F)cc(-c4ccc(C(F)(F)F)cc4)nc23)c1 | 258
99 | COc1ccc2ncc(S(=O)(=O)N(C)C)c(O)c2c1 | > 300
100 | CC(=O)Nc1ccc(NCCOS(C)(=O)=O)c([N+](=O)[O-])c1 | 166
101 | NC1=CC=C2C=c3c(cnn3-c3ccccc3)=C2C1=O | 200 to 202
102 | OC1CCCCC1c1ncc[nH]1 (stereo not drawn) | 133 to 134
103 | CC(C)(C)OC(=O)N1CC=C(c2ncccc2N)CC1 | 104 to 105
